Patent US12018327B2, “Methods and compositions relating to epoxide hydrolase genes” (The Regents of the University of California, priority 2018, dated 2024)

Tests used:
CRA-challenged mice = test: Cockroach antigen (CRA) airway sensitization and challenge model; assay type: in vivo; details: for frequency of lung resident alveolar macrophages (CD11c+CD11b+F4/80+Siglec-F+): compared to vehicle treated
Method: Six-week-old female C57B6 mice were obtained from Jackson Laboratories (Sacramento, CA). Mice were treated on days 1, 2, 3, 14, and 21 with 30 mg kg^−1 12,13 DiHOME solubilized in 10% DMSO or vehicle (10% DMSO) by peritoneal injection. Three hours after injection, mice were challenged intra-tracheally with either PBS or CRA (20,000 PNU mL^−1; Greer, Lenoir, NC). Twenty-four hours after the final challenge mice were anesthetized, injected retro-orbitally with 100 μL CD45-APC (1:10), allowed to recover from anesthesia, and subsequently sacrificed. Lungs and plasma were collected. Serum was isolated, and serum IgE levels were measured using a Mouse IgE ELISA Max kit (Biolegend, San Diego, CA).
Lungs were sent to the Mouse Pathology Core at UCSF for H&E staining of paraffin-embedded tissue sections. Two bronchioles and two vessels from each stained tissue section were scored on a 0-4 scale with 0, representing structures with no inflammatory infiltrates; 1, representing few inflammatory cells; 2, representing a ring 1 cell-layer wide; 3, representing a ring 2-4 cells wide; and 4, representing a ring of inflammatory cells more than 4 cells wide. Each structure was scored by two blinded-individuals, and scores were averaged for each animal. Cell counts were determined for each structure. In brief, the ImageJ freehand selection tool was used to trace the perimeter of each bronchiole and vessel. The area extending beyond the perimeter of the vessel was cleared, and the color threshold of the image was adjusted using the default method with the following parameters: hue=0-255, saturation=0-255, brightness=130-255, threshold color=white, background=dark, color space=HSB. The image was converted to an 8-bit grey scale, and the threshold was adjusted using the B&W defaults and a range of 0-150. Counts were outlined and summarized using the analyze particles window (size=0-infinity, circularity=0.0-1.00).
Lung cell subsets were assessed by flow cytometry. Lung tissue was manually dissected, digested with 5 mg per sample collagenase (Sigma-Aldrich, St. Louis, MO), and passed through a […] filter to generate single cell suspensions. […] Gating strategy can be found in FIG. 5C. Regulatory T cells were identified as CD3+CD4+CD25+FoxP3+ cells. The human T cell gating strategy was also applied to mouse lungs. A representative flow plot can be found in FIG. 5D.
Lung tissue was preserved in RNAlater (Ambion, Foster City, CA). Preserved lung tissue was homogenized in Lysing Matrix E Tubes using a FastPrep 24 Homogenizer (MP Biomedicals, Santa Ana, CA) and extracted using an RNAeasy Mini Kit (Qiagen, Germantown, MD). qPCR was performed on lung tissue, as described above, to evaluate expression of IL1α, IL1β, and TNF relative to GAPDH.

PPARγ = test: PPARγ-activated luciferase reporter assay in Raw264.7 cells; assay type: cell-based; details: 24 hours after treatment
Method: A modified PPARγ luciferase assay was performed as described in Ye et. al.. A PPRE-luciferase reporter plasmid, PPRE X3-TK-luc from Bruce Spiegelman (Plasmid #1015; Addgene, Cambridge, MA), and a PPARγ overexpression plasmid, pGST-PPARgamma from Bert Vogelstein (Plasmid #16549; Addgene, Cambridge, MA), were ordered from Addgene and purified with the Plasmid Plus Maxi Kit (Qiagen, Germantown, MD). Raw264.7 cells grown in R10 media (Roswell Park Memorial Institute (RPMI) media 1640 with 10% heat-inactivated Fetal Bovine SerμMand 2 mM L-glutamine and 100 U mL^−1 penicillin—streptomycin) were transfected with the PPRE-reporter, PPARγ, and Renilla luciferase plasmid DNA in a 1:20:40 ratio, using 50 ng/well of reporter plasmid DNA. Fugene HD Transfection reagent (Promega, Madison, WI) was combined with plasmid DNA in a 4:1 ratio, and the total volume was brought to 5 μL/well with RPMI. The transfection mixture was gently combined with dilute Raw264.7 cells and plated in black, clear-bottom, 96-well plates at a density of 50,000 cells per well. […] Twenty-four hours after treatment luciferase and Renilla luminescence were measured using the Dual-Glo Luciferase Assay kit (Promega, Madison, WI) on a Cytation 3 plate reader (BioTek Instruments, Winooski, VT).

[1] = molecular target: transient receptor potential vanilloid 1 (TRPV1) (Homo sapiens, UniProt Q8NER1); details: ref [15]; cited from earlier work
Sequence of transient receptor potential vanilloid 1 (TRPV1) (Q8NER1 whole entry, species assumed): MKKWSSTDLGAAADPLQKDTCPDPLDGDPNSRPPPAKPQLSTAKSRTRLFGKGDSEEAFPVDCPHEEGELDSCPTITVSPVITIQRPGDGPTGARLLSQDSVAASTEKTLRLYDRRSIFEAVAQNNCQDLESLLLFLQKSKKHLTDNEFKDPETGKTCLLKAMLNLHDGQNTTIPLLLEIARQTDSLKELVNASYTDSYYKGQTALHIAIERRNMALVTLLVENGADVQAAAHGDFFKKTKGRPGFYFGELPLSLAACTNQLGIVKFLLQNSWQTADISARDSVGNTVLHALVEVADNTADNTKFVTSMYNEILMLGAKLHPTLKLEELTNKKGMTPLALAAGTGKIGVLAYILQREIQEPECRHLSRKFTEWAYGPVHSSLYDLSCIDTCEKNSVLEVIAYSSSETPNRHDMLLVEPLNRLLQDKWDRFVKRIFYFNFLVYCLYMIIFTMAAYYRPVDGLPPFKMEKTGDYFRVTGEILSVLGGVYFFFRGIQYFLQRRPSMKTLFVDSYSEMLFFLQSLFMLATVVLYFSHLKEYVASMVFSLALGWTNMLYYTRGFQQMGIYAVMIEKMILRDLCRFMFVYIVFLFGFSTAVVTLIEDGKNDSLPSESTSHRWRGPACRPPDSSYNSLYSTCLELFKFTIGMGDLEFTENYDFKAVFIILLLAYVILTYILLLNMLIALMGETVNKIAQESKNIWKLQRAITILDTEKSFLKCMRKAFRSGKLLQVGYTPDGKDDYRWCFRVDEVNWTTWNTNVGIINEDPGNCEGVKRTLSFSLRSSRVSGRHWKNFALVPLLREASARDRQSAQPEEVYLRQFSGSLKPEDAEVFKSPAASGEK

[2] = system: human DCs (CD3-CD19-CD11c+); test: Human DC maturation by flow cytometry (PPARγ-regulated proteins); assay type: cell-based
Method: Human DC maturation was assessed by flow cytometry. PBMCs were isolated from two healthy human donors using Ficoll-Hypaque gradient centrifugation as previously described and cultured for five days in the presence of 20 ng mL^−1 IL-4 and 10 ng mL^−1 GM-CSF. Monocytic DCs (DCs) were defined as CD3-CD19-CD11c+. The DC gating strategy can be found in FIG. 4E.

human DCs = test: Gene expression in human DCs by qPCR; assay type: cell-based; details: 130 μM, two days; relative to beta-actin
Method: Gene expression was examined in human DCs. DCs were isolated as described above and treated for two days with 130 μM 12,13 DiHOME. Cells were washed twice in PBS, and RNA was extracted using the RNAqueous™ Micro Kit (Ambion, Foster City, CA). The RT2 First Strand Kit (Qiagen, Germantown, MD) was used to synthesize cDNA, and expression of CD36, CD1a, FABP4, and HADH relative to beta-actin was measured using Power SYBR Green PCR Master Mix (ThermoFisher Scientific, Waltham, MA) and a QuantStudio 6 Real-Time PCR system (ThermoFisher Scientific, Waltham, MA).

[3] = 30 mg kg^−1 peritoneal, CRA-challenged, vs vehicle treated PBS or CRA challenged
[4] = CRA challenged, vs vehicle treated PBS or CRA challenged
[5] = CRA-challenged, vs vehicle treated PBS or CRA challenged
[6] = H&E lung sections, 0-4 scale, vs vehicle treated PBS or CRA challenged

## CCCCCC(O)C(O)C/C=C\CCCCCCCC(=O)O (stereo not drawn) [12,13 DiHOME]
CRA-challenged mice; [3]
  expression of IL1β in lung: increased
  frequency of lung resident T cells (CD3+): increased
  number of infiltrating cells surrounding the bronchioles: increased
  number of infiltrating cells surrounding the veins: increased
CRA-challenged mice; 30 mg kg^−1 peritoneal, CRA-challenged, vs vehicle-treated CRA-challenged
  lung Treg frequency: decreased
CRA-challenged mice; 30 mg kg^−1 peritoneal, vs CRA-challenged and PBS-challenged animals
  serum IgE: increased
CRA-challenged mice; [4]
  expression of IL1α in lung: increased
  expression of TNF in lung: increased
CRA-challenged mice; [5]
  frequency of live resident cells in the lungs: did not increase
  frequency of lung resident monocytes (F4-80+Ly6C+Ly6G-CD11b+): significantly increased
  frequency of lung resident neutrophils (Ly6G+CD11b+): significantly increased
  frequency of resident lung cells: decreased
CRA-challenged mice; [6]
  peribronchial inflammation score: increased
  perivascular inflammation score: increased
CRA-challenged mice; CRA challenged animals
  frequency of lung resident alveolar macrophages (CD11c+CD11b+F4/80+Siglec-F+): decreased
CRA-challenged mice; PBS challenged animals
  frequency of lung resident alveolar macrophages (CD11c+CD11b+F4/80+Siglec-F+): increased
PPARγ
  concentrations that lead to PPARγ activation: > 50 µM
[1]
  action on TRPV1: activator
[2]; high concentrations (200 μM)
  expression of CD36 on DCs: increase
[2]; human DCs, flow cytometry
  cell viability: did not alter
[2]; increasing doses
  expression of CCR7 on DCs: significant decrease
  expression of CD1a on DCs: significant decrease
  expression of CD80 on DCs: significant decrease
Human DCs
  expression of CD1a (RNA): significant decrease
  expression of CD36 (RNA): significant increases
  expression of FABP4 (RNA): significant increases
  expression of HADH (RNA): significant increases
